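Following 48 hours of exposure in 96-well plates, responses at five concentrations were used to interpolate endpoints linearly. GI50: concentration for 50% inhibition of growth. TGI: concentration producing complete growth inhibition.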 Some results are limits rather than exact numbers.

The text below walks through data of PubChem BioAssay (NCI).

Among the test systems are HS 578T breast; BT-549 breast; KM12 colon; COLO 205 colon; CAKI-1 renal; RXF 393 renal; PC-3 prostate; NCI-H23 lung; SF-268 CNS; CCRF-CEM leukemia.
Holding throughout (assay): NCI-60 cell line screen, 48 h

On to `Cn1ccnc1C(=O)/C=C/c1ccc(CC(=O)Nc2cc(F)c(F)c(F)c2)cc1`, for which the GI50 in the assay with HS 578T breast was 10.8 µM; in the assay on BT-549 breast it was 1.15 µM; in the assay on KM12 colon it was 1.58 µM; with COLO 205 colon, 2.53 µM; in the assay with CAKI-1 renal, 2.27 µM; in the assay with RXF 393 renal, 0.941 µM. Besides, the GI50 in the assay on PC-3 prostate is 1.26 µM; in the assay on NCI-H23 lung, 2.08 µM; with SF-268 CNS, 1.78 µM. Besides, the TGI was greater than 25 µM in the assay with HS 578T breast; 4.47 µM in the assay on BT-549 breast; 5.51 µM in the assay on KM12 colon; 7.08 µM with COLO 205 colon; 7.54 µM in the assay on CAKI-1 renal; 4.11 µM in the assay with RXF 393 renal. For the same molecule, the TGI in the assay on PC-3 prostate was determined as 5.65 µM; in the assay with NCI-H23 lung, 9.53 µM; in the assay on SF-268 CNS, 9.57 µM.
Take `CCN(CC)Cc1cc(Nc2c3ccc(Cl)cc3nc3c(C)cccc23)ccc1O`: the GI50 was 1.92 µM in the assay with HS 578T breast; 1.92 µM in the assay on BT-549 breast; 1.59 µM in the assay on KM12 colon; 1.23 µM in the assay on COLO 205 colon; 1.53 µM in the assay on CAKI-1 renal; 1.3 µM in the assay with RXF 393 renal. Also, the GI50 is 1.55 µM with PC-3 prostate, 1.65 µM in the assay on NCI-H23 lung and 1.53 µM in the assay on SF-268 CNS. Also, the TGI is 4.57 µM in the assay with HS 578T breast; 3.51 µM in the assay on BT-549 breast; 3.46 µM in the assay with KM12 colon; 2.6 µM with COLO 205 colon; 2.92 µM in the assay on CAKI-1 renal; 2.63 µM with RXF 393 renal. For the same molecule, the TGI stood at 3.1 µM in the assay on PC-3 prostate, 3.22 µM in the assay with NCI-H23 lung and 3.09 µM in the assay with SF-268 CNS.
Take `Cn1cc(C2=C(c3cn(C)c4cc(Cl)ccc34)C(=O)NC2=O)c2ccccc21`: the GI50 in the assay with HS 578T breast was 0.0731 µM; with BT-549 breast it was 0.623 µM; in the assay on KM12 colon, 0.106 µM; in the assay on COLO 205 colon, 0.07 µM; with PC-3 prostate, 0.0796 µM; with NCI-H23 lung, 0.106 µM. Besides, the GI50 is 0.093 µM in the assay with CCRF-CEM leukemia and 0.18 µM in the assay on SF-268 CNS. Also, the TGI in the assay with HS 578T breast is 1.93 µM; in the assay with BT-549 breast it was greater than 25 µM; with KM12 colon, 4.35 µM; with COLO 205 colon, 0.18 µM; with PC-3 prostate it was greater than 25 µM; with NCI-H23 lung, 9.1 µM. Also, the figures for the TGI with CCRF-CEM leukemia and in the assay with SF-268 CNS were greater than 25 µM and greater than 15.1 µM, respectively.
In the case of `Cc1c(-c2ccnc(N)n2)c2c(n1-c1ccccc1)C(=O)c1ccccc1C2=O`, the GI50 in the assay with HS 578T breast is 22.4 µM; with BT-549 breast it was 6.3 µM; in the assay with KM12 colon it was 16.8 µM; in the assay on COLO 205 colon, 44 µM; with CAKI-1 renal it was 17 µM; in the assay with RXF 393 renal, 22.1 µM. In addition, the GI50 in the assay on PC-3 prostate and in the assay on CCRF-CEM leukemia was greater than 100 µM throughout. For the same molecule, the TGI in the assay on HS 578T breast was 60.8 µM; with BT-549 breast it was 29.9 µM; in the assay on KM12 colon it was 45.8 µM; with COLO 205 colon, greater than 100 µM; in the assay with CAKI-1 renal, 62.6 µM; in the assay on RXF 393 renal it was 56.5 µM. The TGI in the assay with PC-3 prostate and with CCRF-CEM leukemia was greater than 100 µM each time.
Turning to `C=CCN1C(=O)C/C(=C2/CCC(=O)N2CC=C)C1=O`, the TGI in the assay with KM12 colon, in the assay with COLO 205 colon, in the assay on CAKI-1 renal, in the assay on RXF 393 renal, with NCI-H23 lung and in the assay on CCRF-CEM leukemia was greater than 100 µM throughout. Also, in the assay with SF-268 CNS, the TGI was greater than 100 µM.
On to `O=C(O)c1ccccc1/C=C1/Nc2ccccc2C1=O`, for which the TGI with HS 578T breast, in the assay with KM12 colon, in the assay with COLO 205 colon, in the assay on CAKI-1 renal, in the assay on RXF 393 renal and with PC-3 prostate was greater than 100 µM throughout. For the same molecule, the TGI in the assay on NCI-H23 lung, in the assay with CCRF-CEM leukemia and with SF-268 CNS was greater than 100 µM each time.
In the case of `CC1(C)CC(=O)C=C(NC(=O)c2ccccc2)C1`, the TGI in the assay on KM12 colon, in the assay with COLO 205 colon, with CAKI-1 renal, in the assay on RXF 393 renal, in the assay on NCI-H23 lung and with CCRF-CEM leukemia was greater than 100 µM throughout. In addition, the TGI in the assay on SF-268 CNS is greater than 100 µM.
For `CC1CCCc2c(CC3CC(=O)NC(=O)C3)nc(N)nc21` (stereo unspecified), the TGI in the assay on BT-549 breast, in the assay on KM12 colon, with COLO 205 colon, in the assay on CAKI-1 renal, with RXF 393 renal and with PC-3 prostate was greater than 100 µM each time. The TGI with NCI-H23 lung, with CCRF-CEM leukemia and with SF-268 CNS was greater than 100 µM throughout.
Turning to `CCc1cc(Nc2nccc(-c3c(-c4ccc(OC)c(C(=O)Nc5c(F)cccc5F)c4)nc4ccccn34)n2)c(OC)cc1N1CCC(N2CCN(S(C)(=O)=O)CC2)CC1`, the GI50 was greater than 100 µM in the assay on HS 578T breast; greater than 100 µM with BT-549 breast; greater than 100 µM in the assay on KM12 colon; greater than 100 µM with CAKI-1 renal; greater than 47 µM in the assay with RXF 393 renal; greater than 100 µM in the assay with PC-3 prostate. The GI50 in the assay on NCI-H23 lung and in the assay with SF-268 CNS was greater than 100 µM in each case. Also, the TGI with HS 578T breast, with BT-549 breast, in the assay with KM12 colon, with COLO 205 colon, with CAKI-1 renal and with RXF 393 renal was greater than 100 µM each time. In addition, the TGI with PC-3 prostate, in the assay on NCI-H23 lung and in the assay with SF-268 CNS was greater than 100 µM each time.
On to `c1cc[c]([Sn]([O]c2cccc3cccnc23)([c]2ccccc2)[c]2ccccc2)cc1`, for which the GI50 with KM12 colon is 0.0135 µM; in the assay with COLO 205 colon, 0.0161 µM; with CAKI-1 renal, 0.0188 µM; in the assay on RXF 393 renal, 0.0154 µM; with NCI-H23 lung, 0.0158 µM; with CCRF-CEM leukemia, 0.0115 µM. The GI50 in the assay with SF-268 CNS is 0.0128 µM. In addition, the TGI in the assay on KM12 colon is 0.0267 µM; in the assay with COLO 205 colon, 0.0302 µM; in the assay with CAKI-1 renal, 0.0852 µM; with RXF 393 renal, 0.0333 µM; with NCI-H23 lung it was 0.0397 µM; in the assay on CCRF-CEM leukemia, 0.11 µM. In the assay with SF-268 CNS, this molecule displayed a TGI of 0.0275 µM.
